Laboratory results taken from the NIST ThermoML archive (doi:10.1016/j.jct.2006.06.009).
Numbers after ± are expanded uncertainties.

How the values were obtained:
[1] = xn = mol fraction of the nth substance listed; conditions: 308.15 K, 101 kPa, Liquid
[2] = 308.15 K; 101 kPa; Liquid

Structure (SMILES): ClC(Cl)C(Cl)Cl [1,1,2,2-tetrachloroethane] + CNC(C)=O
- mass density ([1]; x2 = 0): 1572.4 ± 2.9 kg/m3
- viscosity ([1]; x2 = 0): 1.334 ± 0.033 mPa·s

Structure (SMILES): CNC(C)=O [N-methylacetamide] + ClC(Cl)C(Cl)Cl
- mass density ([1]; x1 = 0.0621): 1545.5 ± 2.8 kg/m3
- viscosity ([1]; x1 = 0.0621): 1.499 ± 0.037 mPa·s
- mass density ([1]; x1 = 0.2627): 1450.5 ± 2.4 kg/m3
- viscosity ([1]; x1 = 0.2627): 2.226 ± 0.053 mPa·s
- mass density ([1]; x1 = 0.3728): 1393 ± 2.2 kg/m3
- viscosity ([1]; x1 = 0.3728): 2.726 ± 0.064 mPa·s
- mass density ([1]; x1 = 0.4796): 1331.6 ± 2 kg/m3
- viscosity ([1]; x1 = 0.4796): 3.398 ± 0.078 mPa·s
- mass density ([1]; x1 = 0.5797): 1268.9 ± 1.9 kg/m3
- viscosity ([1]; x1 = 0.5797): 3.936 ± 0.09 mPa·s
- mass density ([1]; x1 = 0.6722): 1206.5 ± 1.7 kg/m3
- viscosity ([1]; x1 = 0.6722): 4.291 ± 0.097 mPa·s
- mass density ([1]; x1 = 0.7594): 1143.7 ± 1.6 kg/m3
- viscosity ([1]; x1 = 0.7594): 4.404 ± 0.099 mPa·s
- mass density ([1]; x1 = 0.8413): 1080.7 ± 1.5 kg/m3
- viscosity ([1]; x1 = 0.8413): 4.036 ± 0.091 mPa·s
- mass density ([1]; x1 = 0.9679): 974.8 ± 1.2 kg/m3
- viscosity ([1]; x1 = 0.9679): 3.533 ± 0.08 mPa·s
- mass density ([1]; x1 = 1): 945.9 ± 1.2 kg/m3
- viscosity ([1]; x1 = 1): 3.312 ± 0.075 mPa·s

Structure (SMILES): ClC=C(Cl)Cl [trichloroethene] + CNC(C)=O
- mass density ([1]; x2 = 0): 1438.5 ± 2 kg/m3
- viscosity ([1]; x2 = 0): 0.46 ± 0.012 mPa·s

Structure (SMILES): ClC(Cl)C(Cl)Cl [1,1,2,2-tetrachloroethane]
- mass density [2]: 1572.4 ± 2.9 kg/m3
- viscosity [2]: 1.334 ± 0.033 mPa·s

Structure (SMILES): CNC(C)=O [N-methylacetamide] + ClCCCl
- mass density ([1]; x1 = 0.063): 1213.8 ± 1.6 kg/m3
- viscosity ([1]; x1 = 0.063): 0.705 ± 0.014 mPa·s
- mass density ([1]; x1 = 0.134): 1194.7 ± 1.6 kg/m3
- viscosity ([1]; x1 = 0.134): 0.785 ± 0.014 mPa·s
- mass density ([1]; x1 = 0.2632): 1159.1 ± 1.5 kg/m3
- viscosity ([1]; x1 = 0.2632): 1.024 ± 0.016 mPa·s
- mass density ([1]; x1 = 0.3875): 1124.3 ± 1.5 kg/m3
- viscosity ([1]; x1 = 0.3875): 1.342 ± 0.019 mPa·s
- mass density ([1]; x1 = 0.4442): 1108.2 ± 1.4 kg/m3
- viscosity ([1]; x1 = 0.4442): 1.5 ± 0.02 mPa·s
- mass density ([1]; x1 = 0.5064): 1090.5 ± 1.4 kg/m3
- viscosity ([1]; x1 = 0.5064): 1.694 ± 0.022 mPa·s
- mass density ([1]; x1 = 0.6863): 1038.5 ± 1.3 kg/m3
- viscosity ([1]; x1 = 0.6863): 2.245 ± 0.028 mPa·s
- mass density ([1]; x1 = 0.807): 1003.1 ± 1.3 kg/m3
- viscosity ([1]; x1 = 0.807): 2.651 ± 0.033 mPa·s
- mass density ([1]; x1 = 0.931): 966.5 ± 1.2 kg/m3
- viscosity ([1]; x1 = 0.931): 3.083 ± 0.038 mPa·s
- mass density ([1]; x1 = 1): 945.9 ± 1.2 kg/m3
- viscosity ([1]; x1 = 1): 3.312 ± 0.04 mPa·s

Structure (SMILES): ClCC(Cl)Cl [1,1,2-trichloroethane]
- mass density [2]: 1416.1 ± 3.2 kg/m3
- viscosity [2]: 0.903 ± 0.017 mPa·s

Structure (SMILES): ClC=C(Cl)Cl [trichloroethene]
- mass density [2]: 1438.5 ± 2 kg/m3
- viscosity [2]: 0.46 ± 0.012 mPa·s

Structure (SMILES): CNC(C)=O [N-methylacetamide]
- mass density [2]: 945.9 ± 1.2 kg/m3
- viscosity [2]: 3.312 ± 0.04 mPa·s

Structure (SMILES): CNC(C)=O [N-methylacetamide] + ClC=C(Cl)Cl
- mass density ([1]; x1 = 0.0514): 1417.9 ± 2 kg/m3
- viscosity ([1]; x1 = 0.0514): 0.564 ± 0.013 mPa·s
- mass density ([1]; x1 = 0.2353): 1340.4 ± 1.9 kg/m3
- viscosity ([1]; x1 = 0.2353): 1.015 ± 0.016 mPa·s
- mass density ([1]; x1 = 0.3404): 1293.3 ± 1.8 kg/m3
- viscosity ([1]; x1 = 0.3404): 1.291 ± 0.018 mPa·s
- mass density ([1]; x1 = 0.4437): 1244.6 ± 1.7 kg/m3
- viscosity ([1]; x1 = 0.4437): 1.578 ± 0.021 mPa·s
- mass density ([1]; x1 = 0.5419): 1196.4 ± 1.6 kg/m3
- viscosity ([1]; x1 = 0.5419): 1.856 ± 0.024 mPa·s
- mass density ([1]; x1 = 0.6357): 1148.5 ± 1.5 kg/m3
- viscosity ([1]; x1 = 0.6357): 2.15 ± 0.027 mPa·s
- mass density ([1]; x1 = 0.7288): 1099.4 ± 1.4 kg/m3
- viscosity ([1]; x1 = 0.7288): 2.45 ± 0.03 mPa·s
- mass density ([1]; x1 = 0.8196): 1049.9 ± 1.4 kg/m3
- viscosity ([1]; x1 = 0.8196): 2.74 ± 0.034 mPa·s
- mass density ([1]; x1 = 0.9692): 964.4 ± 1.2 kg/m3
- viscosity ([1]; x1 = 0.9692): 3.215 ± 0.039 mPa·s
- mass density ([1]; x1 = 1): 945.9 ± 1.2 kg/m3
- viscosity ([1]; x1 = 1): 3.312 ± 0.04 mPa·s

Structure (SMILES): ClC(Cl)=C(Cl)Cl [tetrachloroethene] + CNC(C)=O
- mass density ([1]; x2 = 0): 1599.2 ± 2.3 kg/m3
- viscosity ([1]; x2 = 0): 0.723 ± 0.014 mPa·s

Structure (SMILES): CNC(C)=O [N-methylacetamide] + ClCC(Cl)Cl
- mass density ([1]; x1 = 1): 945.9 ± 1.2 kg/m3
- viscosity ([1]; x1 = 1): 3.312 ± 0.04 mPa·s

Structure (SMILES): ClC(Cl)=C(Cl)Cl [tetrachloroethene]
- mass density [2]: 1599.2 ± 2.3 kg/m3
- viscosity [2]: 0.723 ± 0.014 mPa·s

Structure (SMILES): CNC(C)=O [N-methylacetamide] + ClC(Cl)=C(Cl)Cl
- mass density ([1]; x1 = 0.0571): 1573.5 ± 2.3 kg/m3
- viscosity ([1]; x1 = 0.0571): 0.801 ± 0.014 mPa·s
- mass density ([1]; x1 = 0.2569): 1463.9 ± 2.1 kg/m3
- viscosity ([1]; x1 = 0.2569): 1.541 ± 0.021 mPa·s
- mass density ([1]; x1 = 0.3691): 1396.5 ± 2 kg/m3
- viscosity ([1]; x1 = 0.3691): 1.895 ± 0.024 mPa·s
- mass density ([1]; x1 = 0.4749): 1330.8 ± 1.8 kg/m3
- viscosity ([1]; x1 = 0.4749): 2.195 ± 0.027 mPa·s
- mass density ([1]; x1 = 0.5719): 1268.3 ± 1.7 kg/m3
- viscosity ([1]; x1 = 0.5719): 2.411 ± 0.03 mPa·s
- mass density ([1]; x1 = 0.6637): 1206.2 ± 1.6 kg/m3
- viscosity ([1]; x1 = 0.6637): 2.61 ± 0.032 mPa·s
- mass density ([1]; x1 = 0.7039): 1178 ± 1.6 kg/m3
- viscosity ([1]; x1 = 0.7039): 2.696 ± 0.033 mPa·s
- mass density ([1]; x1 = 0.8385): 1078.2 ± 1.4 kg/m3
- viscosity ([1]; x1 = 0.8385): 2.981 ± 0.037 mPa·s
- mass density ([1]; x1 = 0.9666): 974.6 ± 1.2 kg/m3
- viscosity ([1]; x1 = 0.9666): 3.245 ± 0.04 mPa·s
- mass density ([1]; x1 = 1): 945.9 ± 1.2 kg/m3
- viscosity ([1]; x1 = 1): 3.312 ± 0.04 mPa·s

Structure (SMILES): ClCC(Cl)Cl [1,1,2-trichloroethane] + CNC(C)=O
- mass density ([1]; x2 = 0): 1416.1 ± 3.2 kg/m3
- viscosity ([1]; x2 = 0): 0.903 ± 0.017 mPa·s
- mass density ([1]; x2 = 0.0706): 1390.4 ± 3 kg/m3
- viscosity ([1]; x2 = 0.0706): 1.003 ± 0.018 mPa·s
- mass density ([1]; x2 = 0.2356): 1324.2 ± 2.6 kg/m3
- viscosity ([1]; x2 = 0.2356): 1.365 ± 0.022 mPa·s
- mass density ([1]; x2 = 0.3484): 1276 ± 2.3 kg/m3
- viscosity ([1]; x2 = 0.3484): 1.771 ± 0.026 mPa·s
- mass density ([1]; x2 = 0.452): 1229.9 ± 2.1 kg/m3
- viscosity ([1]; x2 = 0.452): 2.18 ± 0.03 mPa·s
- mass density ([1]; x2 = 0.5461): 1186.3 ± 1.9 kg/m3
- viscosity ([1]; x2 = 0.5461): 2.537 ± 0.034 mPa·s
- mass density ([1]; x2 = 0.643): 1139.1 ± 1.7 kg/m3
- viscosity ([1]; x2 = 0.643): 2.88 ± 0.038 mPa·s
- mass density ([1]; x2 = 0.7345): 1092.7 ± 1.6 kg/m3
- viscosity ([1]; x2 = 0.7345): 3.105 ± 0.04 mPa·s
- mass density ([1]; x2 = 0.8235): 1045.8 ± 1.4 kg/m3
- viscosity ([1]; x2 = 0.8235): 3.249 ± 0.041 mPa·s
- mass density ([1]; x2 = 0.9497): 975.3 ± 1.3 kg/m3
- viscosity ([1]; x2 = 0.9497): 3.345 ± 0.041 mPa·s

Structure (SMILES): ClCCCl [1,2-dichloroethane]
- mass density [2]: 1230.8 ± 1.7 kg/m3
- viscosity [2]: 0.646 ± 0.013 mPa·s

Structure (SMILES): ClCCCl [1,2-dichloroethane] + CNC(C)=O
- mass density ([1]; x2 = 0): 1230.8 ± 1.7 kg/m3
- viscosity ([1]; x2 = 0): 0.646 ± 0.013 mPa·s
